Laboratory results: patent US12291519B2, “2-hydroxycycloalkane-1-carbamoyl” (Idorsia Pharmaceuticals Ltd, priority 2019, dated 2025)
pIC50: −log10 of the molar value.

Legend:
human Gal-1 (hGal-1) = assay: Competitive binding assay: biotinylated hGal-1 binding to microplate-adsorbed asialofetuin (ASF); details: Activity on hGal-1; binding of biotinylated hGal-1 to ASF-coated plates; mean values
Outline: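 Inhibition measured as loss of hGal-1 (biotinylated, 300–1000 ng/mL, wild type or Cys→Ser mutant) binding to adsorbed asialofetuin over 3 h at 4 °C. Bound lectin detected with streptavidin-HRP and ABTS (410 nm, 30–45 min); IC50 values averaged across repeat measurements.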

human Gal-3 (hGal-3) = human Gal-3 (hGal-3) (Homo sapiens (Human), UniProt P17931); assay: Competitive binding assay: biotinylated hGal-3 binding to microplate-adsorbed asialofetuin (ASF); details: Activity on hGal-3; binding of biotinylated hGal-3 to ASF-coated plates; mean values
Outline: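 Serially diluted compounds competed with biotinylated human Gal-3 for binding to plate-adsorbed asialofetuin over 3 h at 4 °C. Bound Gal-3 was detected with streptavidin-peroxidase (80 ng/mL, 1 h, 4 °C) and ABTS substrate. IC50 values are means of several measurements.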

Sequence of human Gal-3 (hGal-3) (P17931 whole entry): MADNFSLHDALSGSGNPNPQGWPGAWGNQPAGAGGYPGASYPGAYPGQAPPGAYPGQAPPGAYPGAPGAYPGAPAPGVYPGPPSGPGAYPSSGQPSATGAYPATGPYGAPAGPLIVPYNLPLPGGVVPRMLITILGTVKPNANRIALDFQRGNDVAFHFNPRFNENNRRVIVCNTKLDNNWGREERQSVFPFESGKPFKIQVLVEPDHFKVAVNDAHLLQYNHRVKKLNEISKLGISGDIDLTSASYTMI
Sequence of human Gal-1 (hGal-1) (P09382 2-135 limits assumed): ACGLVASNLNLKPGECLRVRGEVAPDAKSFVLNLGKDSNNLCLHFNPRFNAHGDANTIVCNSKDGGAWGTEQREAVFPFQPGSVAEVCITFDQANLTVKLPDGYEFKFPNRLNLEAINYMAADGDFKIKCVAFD

Structure (SMILES)	pIC50 (human Gal-1 (hGal-1))	pIC50 (human Gal-3 (hGal-3))
CO[C@@H]1[C@@H](n2cc(-c3cc(F)cc(Cl)c3)nn2)[C@@H](O)[C@@H](CO)O[C@H]1C(=O)N(c1cc(F)cc(Br)c1)[C@H]1CCCC[C@@H]1O [Example 136, (2R,3R,4S,5R,6R)-N-(3-bromo-5-fluorophenyl)-4-(4-(3-chloro-5-fluorophenyl)-1H-1,2,3-triazol-1-yl)-5-hydroxy-N-((1S,2S)-2-hydroxycyclohexyl)-6-(hydroxymethyl)-3-methoxytetrahydro-2H-pyran-2-carboxamide]	6.49	7.60
CO[C@@H]1[C@@H](n2cc(-c3cc(F)cc(F)c3)nn2)[C@@H](O)[C@@H](CO)O[C@H]1C(=O)N(c1cc(Cl)cc(C#N)c1)[C@H]1CCCC[C@@H]1O [Example 80, (2R,3R,4S,5R,6R)-N-(3-chloro-5-cyanophenyl)-4-(4-(3,5-difluorophenyl)-1H-1,2,3-triazol-1-yl)-5-hydroxy-N-((1S,2S)-2-hydroxycyclohexyl)-6-(hydroxymethyl)-3-methoxytetrahydro-2H-pyran-2-carboxamide]	6.42	7.60
CO[C@@H]1[C@@H](n2cc(-c3cc(F)c(C)c(F)c3)nn2)[C@@H](O)[C@@H](CO)O[C@H]1C(=O)N(c1cc(F)cc(C#N)c1)[C@H]1CCCC[C@@H]1O [Example 161, (2R,3R,4S,5R,6R)-N-(3-cyano-5-fluorophenyl)-4-(4-(3,5-difluoro-4-methylphenyl)-1H-1,2,3-triazol-1-yl)-5-hydroxy-N-((1S,2S)-2-hydroxycyclohexyl)-6-(hydroxymethyl)-3-methoxytetrahydro-2H-pyran-2-carboxamide]	5.66	7.60
O=C(CO[C@@H]1[C@@H](n2cc(-c3cc(F)c(F)c(F)c3)nn2)[C@@H](O)[C@@H](CO)O[C@H]1C(=O)N(c1cc(Cl)cc(Cl)c1)[C@H]1CCCC[C@@H]1O)N1CC[C@@H](O)C1 [Example 126, (2R,3R,4S,5R,6R)—N-(3,5-dichlorophenyl)-5-hydroxy-N-((1S,2S)-2-hydroxycyclohexyl)-6-(hydroxymethyl)-3-(2-((R)-3-hydroxypyrrolidin-1-yl)-2-oxoethoxy)-4-(4-(3,4,5-trifluorophenyl)-1H-1,2,3-triazol-1-yl)tetrahydro-2H-pyran-2-carboxamide]	6.87	7.80
CO[C@@H]1[C@@H](n2cc(-c3ccc(Br)c(F)c3F)nn2)[C@@H](O)[C@@H](CO)O[C@H]1C(=O)N(c1cc(F)cc(C#N)c1)[C@H]1CCCC[C@@H]1O [Example 176, (2R,3R,4S,5R,6R)-4-(4-(4-bromo-2,3-difluorophenyl)-1H-1,2,3-triazol-1-yl)-N-(3-cyano-5-fluorophenyl)-5-hydroxy-N-((1S,2S)-2-hydroxycyclohexyl)-6-(hydroxymethyl)-3-methoxytetrahydro-2H-pyran-2-carboxamide]	6.17	7.82
CO[C@@H]1[C@@H](n2cc(-c3ccc(Br)c(F)c3)nn2)[C@@H](O)[C@@H](CO)O[C@H]1C(=O)N(c1ccc(F)c(F)c1)[C@H]1CCCC[C@@H]1O [Example 164, (2R,3R,4S,5R,6R)-4-(4-(4-bromo-3-fluorophenyl)-1H-1,2,3-triazol-1-yl)-N-(3,4-difluorophenyl)-5-hydroxy-N-((1S,2S)-2-hydroxycyclohexyl)-6-(hydroxymethyl)-3-methoxytetrahydro-2H-pyran-2-carboxamide]	5.71	7.24
O=C([C@@H]1O[C@H](CO)[C@H](O)[C@H](n2cc(-c3cc(F)c(F)c(F)c3)nn2)[C@H]1O)N(Cc1cnsc1)[C@H]1CCCC[C@@H]1O [Example 18, (2R,3R,4S,5R,6R)-3,5-dihydroxy-N-((1S,2S)-2-hydroxycyclohexyl)-6-(hydroxymethyl)-N-(isothiazol-4-ylmethyl)-4-(4-(3,4,5-trifluorophenyl)-1H-1,2,3-triazol-1-yl)tetrahydro-2H-pyran-2-carboxamide]	4.94	6.75

The remaining compounds from weak to strong by pIC50 (human Gal-1 (hGal-1)), led by results:

pIC50 (human Gal-1 (hGal-1))	pIC50 (human Gal-3 (hGal-3))	Structure (SMILES)
4.06	6.78	O=C([C@@H]1O[C@H](CO)[C@H](O)[C@H](n2cc(-c3cc(F)c(F)c(F)c3)nn2)[C@H]1O)N(Cc1ccc(Cl)s1)[C@H]1CCCC[C@@H]1O [Example 22, (2R,3R,4S,5R,6R)-N-((5-chlorothiophen-2-yl)methyl)-3,5-dihydroxy-N-((1S,2S)-2-hydroxycyclohexyl)-6-(hydroxymethyl)-4-(4-(3,4,5-trifluorophenyl)-1H-1,2,3-triazol-1-yl)tetrahydro-2H-pyran-2-carboxamide]
4.64	6.55	O=C([C@@H]1O[C@H](CO)[C@H](O)[C@H](n2cc(-c3cc(F)c(F)c(F)c3)nn2)[C@H]1O)N(Cc1ccc(Cl)o1)[C@H]1CCCC[C@@H]1O [Example 17, (2R,3R,4S,5R,6R)-N-((5-chlorofuran-2-yl)methyl)-3,5-dihydroxy-N-((1S,2S)-2-hydroxycyclohexyl)-6-(hydroxymethyl)-4-(4-(3,4,5-trifluorophenyl)-1H-1,2,3-triazol-1-yl)tetrahydro-2H-pyran-2-carboxamide]
4.74	6.49	CO[C@@H]1[C@@H](n2cc(-c3cc(F)c(F)c(F)c3)nn2)[C@@H](O)[C@@H](CO)O[C@H]1C(=O)N(c1cc(C)n(C)n1)[C@H]1CCCC[C@@H]1O [Example 199, (2R,3R,4S,5R,6R)-N-(1,5-dimethyl-1H-pyrazol-3-yl)-5-hydroxy-N-((1S,2S)-2-hydroxycyclohexyl)-6-(hydroxymethyl)-3-methoxy-4-(4-(3,4,5-trifluorophenyl)-1H-1,2,3-triazol-1-yl)tetrahydro-2H-pyran-2-carboxamide]
5.60	6.77	O=C([C@@H]1O[C@H](CO)[C@H](O)[C@H](n2cc(-c3cc(F)c(F)c(F)c3)nn2)[C@H]1O)N(Cc1ccncc1Cl)[C@H]1CCCC[C@@H]1O [Example 8, (2R,3R,4S,5R,6R)-N-((3-chloropyridin-4-yl)methyl)-3,5-dihydroxy-N-((1S,2S)-2-hydroxycyclohexyl)-6-(hydroxymethyl)-4-(4-(3,4,5-trifluorophenyl)-1H-1,2,3-triazol-1-yl)tetrahydro-2H-pyran-2-carboxamide]
5.84	6.38	CO[C@@H]1[C@@H](n2cc(-c3cc(F)c(F)c(F)c3)nn2)[C@@H](O)[C@@H](CO)O[C@H]1C(=O)N(Cc1ccnn1C(C)C)[C@H]1CCCC[C@@H]1O [Example 45, (2R,3R,4S,5R,6R)-5-hydroxy-N-((1S,2S)-2-hydroxycyclohexyl)-6-(hydroxymethyl)-N-((1-isopropyl-1H-pyrazol-5-yl)methyl)-3-methoxy-4-(4-(3,4,5-trifluorophenyl)-1H-1,2,3-triazol-1-yl)tetrahydro-2H-pyran-2-carboxamide]
5.99	6.86	CC(=O)O[C@@H]1[C@@H](n2cc(-c3cc(F)cc(F)c3)nn2)[C@@H](O)[C@@H](CO)O[C@H]1C(=O)N(Cc1ccccc1C(F)(F)F)[C@H]1CCCC[C@@H]1O [Example 63, (2R,3R,4S,5R,6R)-4-(4-(3,5-difluorophenyl)-1H-1,2,3-triazol-1-yl)-5-hydroxy-2-(((1S,2S)-2-hydroxycyclohexyl)(2-(trifluoromethyl)benzyl)carbamoyl)-6-(hydroxymethyl)tetrahydro-2H-pyran-3-yl acetate]
6.10	7.44	COc1cccc(N(C(=O)[C@@H]2O[C@H](CO)[C@H](O)[C@H](n3cc(-c4cc(F)c(F)c(F)c4)nn3)[C@H]2OC)[C@H]2CCCC[C@@H]2O)c1 [Example 101, (2R,3R,4S,5R,6R)-5-hydroxy-N-((1S,2S)-2-hydroxycyclohexyl)-6-(hydroxymethyl)-3-methoxy-N-(3-methoxyphenyl)-4-(4-(3,4,5-trifluorophenyl)-1H-1,2,3-triazol-1-yl)tetrahydro-2H-pyran-2-carboxamide]
6.17	7.48	CO[C@@H]1[C@@H](n2cc(-c3cc(F)cc(Cl)c3)nn2)[C@@H](O)[C@@H](CO)O[C@H]1C(=O)N(c1cc(C)cc(C#N)c1)[C@H]1CCCC[C@@H]1O [Example 140, (2R,3R,4S,5R,6R)-4-(4-(3-chloro-5-fluorophenyl)-1H-1,2,3-triazol-1-yl)-N-(3-cyano-5-methylphenyl)-5-hydroxy-N-((1S,2S)-2-hydroxycyclohexyl)-6-(hydroxymethyl)-3-methoxytetrahydro-2H-pyran-2-carboxamide]
6.24	7.74	CO[C@@H]1[C@@H](n2cc(-c3ccc(C)c(F)c3)nn2)[C@@H](O)[C@@H](CO)O[C@H]1C(=O)N(c1cc(Cl)cc(C#N)c1)[C@H]1CCCC[C@@H]1O [Example 170, (2R,3R,4S,5R,6R)-N-(3-chloro-5-cyanophenyl)-4-(4-(3-fluoro-4-methylphenyl)-1H-1,2,3-triazol-1-yl)-5-hydroxy-N-((1S,2S)-2-hydroxycyclohexyl)-6-(hydroxymethyl)-3-methoxytetrahydro-2H-pyran-2-carboxamide]
6.28	7.74	CO[C@@H]1[C@@H](n2cc(-c3cc(F)c(F)c(F)c3)nn2)[C@@H](O)[C@@H](CO)O[C@H]1C(=O)N(c1cc(F)cc(C#N)c1)[C@H]1CCCC[C@@H]1O [Example 113, (2R,3R,4S,5R,6R)-N-(3-cyano-5-fluorophenyl)-5-hydroxy-N-((1S,2S)-2-hydroxycyclohexyl)-6-(hydroxymethyl)-3-methoxy-4-(4-(3,4,5-trifluorophenyl)-1H-1,2,3-triazol-1-yl)tetrahydro-2H-pyran-2-carboxamide]
